Measured values taken from patent US20150344540A1, “NOVEL GLP-1 RECEPTOR AGONISTS WITH CHOLESTEROL EFFLUX ACTIVITY” (NOVO NORDISK A/S, priority 2012, published 2015).
Read-outs that look alike come from different tables or passages of the source. Where a SMILES comes first, the peptide text is derived from it. Where no end group is shown, it is not given here. [ ]: non-standard residue; d: D form. Aib = CC(C)(N)C(=O)O

Key:
[1] = target: human GLP-1 receptor (Homo sapiens, UniProt P43220); experiment: Functional GLP-1 receptor assay, in vitro potency (CRE luciferase; whole cells); type: cell-based; conditions: BHK cells expressing human GLP-1 receptor
Sequence of human GLP-1 receptor (Homo sapiens, UniProt P43220) (P43220 24-463): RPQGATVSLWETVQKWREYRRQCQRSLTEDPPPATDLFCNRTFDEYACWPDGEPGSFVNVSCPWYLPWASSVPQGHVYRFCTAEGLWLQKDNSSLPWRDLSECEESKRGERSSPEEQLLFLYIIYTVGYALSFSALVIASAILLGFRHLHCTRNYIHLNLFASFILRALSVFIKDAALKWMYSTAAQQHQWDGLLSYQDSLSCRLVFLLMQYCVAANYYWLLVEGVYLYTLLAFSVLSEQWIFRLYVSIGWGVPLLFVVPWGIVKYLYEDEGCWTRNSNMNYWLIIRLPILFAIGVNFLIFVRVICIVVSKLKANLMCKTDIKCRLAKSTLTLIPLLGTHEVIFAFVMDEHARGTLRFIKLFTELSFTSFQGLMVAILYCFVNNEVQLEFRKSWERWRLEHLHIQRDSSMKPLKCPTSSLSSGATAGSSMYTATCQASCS

[2] = target: human GLP-1 receptor (human, UniProt P43220); experiment: cell-based or functional assay
[3] = GLP1R CRE luc 1% HSA EC50 Mean Value, 1% HSA
[4] = 0% HSA, read-out: GLP1R CRE luc 0% HSA EC50 Mean Value

With “H-HAEGTFTSDVSSYLEGQAAKEFIAWLVEGVKEFLEK-OH [Compound 127, [Glu34,Val36,Lys37]-GLP-1-(7-37)-peptidyl-Glu-Phe-Leu-Glu-Lys]” the EC50 [1, 3] was 0.023 nM.

In the case of “HAEGTFTSDVSSYLEGQAAKEFIAWLVEKVHEFL-NH2 [Compound 141]”, the EC50 [1, 3] is reported as 0.03 nM.

`CC[C@H](C)[C@H](NC(=O)[C@H](Cc1ccccc1)NC(=O)[C@H](CCC(=O)O)NC(=O)[C@H](CCCCN)NC(=O)[C@@H](NC(=O)[C@H](C)NC(=O)[C@H](CCC(=O)O)NC(=O)CNC(=O)[C@H](CCC(=O)O)NC(=O)[C@H](CC(C)C)NC(=O)[C@H](Cc1ccc(O)cc1)NC(=O)[C@H](CC(N)=O)NC(=O)[C@@H](NC(=O)[C@H](CCSC)NC(=O)[C@H](CC(=O)O)NC(=O)[C@H](CC(N)=O)NC(=O)[C@@H](NC(=O)[C@H](Cc1ccccc1)NC(=O)[C@@H](NC(=O)CNC(=O)[C@H](CCC(=O)O)NC(=O)[C@H](C)NC(=O)[C@@H](N)Cc1c[nH]cn1)[C@@H](C)O)[C@@H](C)O)[C@@H](C)O)C(C)C)C(=O)N[C@@H](C)C(=O)N[C@@H](Cc1c[nH]c2ccccc12)C(=O)N[C@@H](CC(C)C)C(=O)N[C@H](C(=O)N[C@@H](CCC(=O)O)C(=O)N[C@@H](CCCCN)C(=O)NC(C)(C)C(=O)N[C@@H](CCCCN)C(=O)N[C@@H](CCC(=O)O)C(=O)N[C@@H](Cc1ccccc1)C(=O)N[C@@H](CC(C)C)C(N)=O)C(C)C` [Compound 44, [Asn14,Met16,Thr17,Asn18,Glu23,Val25,Glu34,Lys35,Aib36,Lys37]-GLP-1-(7-37)-peptidyl-Glu-Phe-Leu amide] (H-HAEGTFTNDMTNYLEGEAVKEFIAWLVEK[Aib]KEFL-NH2; N-terminus assumed) was tested, and the EC50 [1, 3] was 0.077 nM.

`CC[C@H](C)[C@H](NC(=O)[C@H](Cc1ccccc1)NC(=O)[C@H](CCC(=O)O)NC(=O)[C@H](CCCCN)NC(=O)[C@@H](NC(=O)[C@H](C)NC(=O)[C@H](CCC(=O)O)NC(=O)CNC(=O)[C@H](CCC(=O)O)NC(=O)[C@H](CC(C)C)NC(=O)[C@H](Cc1ccc(O)cc1)NC(=O)[C@H](CCC(=O)O)NC(=O)[C@@H](NC(=O)[C@@H](NC(=O)[C@H](CC(=O)O)NC(=O)[C@H](CC(N)=O)NC(=O)[C@@H](NC(=O)[C@H](Cc1ccc(O)cc1)NC(=O)[C@@H](NC(=O)CNC(=O)[C@H](CCC(=O)O)NC(=O)[C@H](C)NC(=O)[C@@H](N)Cc1c[nH]cn1)[C@@H](C)O)[C@@H](C)O)C(C)C)[C@@H](C)O)C(C)C)C(=O)N[C@@H](C)C(=O)N[C@@H](Cc1c[nH]c2ccccc12)C(=O)N[C@@H](CC(C)C)C(=O)N[C@H](C(=O)N[C@@H](CCC(=O)O)C(=O)N[C@@H](CCCCN)C(=O)NC(C)(C)C(=O)N[C@@H](CCCCN)C(=O)N[C@@H](CCC(=O)O)C(=O)N[C@@H](Cc1ccccc1)C(=O)N[C@@H](CC(C)C)C(N)=O)C(C)C` [Compound 13, [Tyr12,Asn14,Thr17,Glu18,Glu23,Val25,Glu34,Lys35,Aib36,Lys37]-GLP-1-(7-37)-peptidyl-Glu-Phe-Leu amide] (H-HAEGTYTNDVTEYLEGEAVKEFIAWLVEK[Aib]KEFL-NH2; N-terminus assumed) was tested, and the EC50 [1, 3] was 0.104 nM.

Molecule `CC[C@H](C)[C@H](NC(=O)[C@H](Cc1ccccc1)NC(=O)[C@H](CCC(=O)O)NC(=O)[C@H](CCCCN)NC(=O)[C@H](C)NC(=O)[C@H](C)NC(=O)[C@H](CCCCN)NC(=O)[C@H](CCC(=O)O)NC(=O)[C@H](CCC(=O)O)NC(=O)[C@H](CC(C)C)NC(=O)[C@H](Cc1ccc(O)cc1)NC(=O)[C@H](CCCCN)NC(=O)[C@H](CO)NC(=O)[C@H](Cc1ccc(O)cc1)NC(=O)[C@H](CC(=O)O)NC(=O)[C@H](CO)NC(=O)[C@@H](NC(=O)[C@H](Cc1ccccc1)NC(=O)[C@@H](NC(=O)CNC(=O)[C@H](CCC(N)=O)NC(=O)[C@H](CO)NC(=O)[C@@H](N)Cc1c[nH]cn1)[C@@H](C)O)[C@@H](C)O)C(=O)N[C@@H](C)C(=O)N[C@@H](Cc1c[nH]c2ccccc12)C(=O)N[C@@H](CC(C)C)C(=O)N[C@@H](CC(C)C)C(=O)N[C@@H](CCC(=O)O)C(=O)N[C@@H](CCCCN)C(=O)NC(C)(C)C(=O)N[C@@H](CCCCN)C(=O)N[C@@H](CCC(=O)O)C(=O)N[C@@H](Cc1ccccc1)C(=O)N[C@@H](CC(C)C)C(N)=O` [Compound 57] (H-HSQGTFTSDYSKYLEEKAAKEFIAWLLEK[Aib]KEFL-NH2) has an EC50 [1, 4] of 0.086 nM and an EC50 [1, 3] of 0.044 nM.

“HAEGTFTSDVSSYLEGQAAKEFIAWLVEHVKEFL-NH2 [Compound 140, [Glu34,His35,Val36,Lys37]-GLP-1-(7-37)-peptidyl-Glu-Phe-Leu amide]” showed an EC50 [1, 4] of 0.103 nM.

Work on “HAEGTFTSDVSSYLEGQAAKEFIAWLVEKVKEF-NH2 [Compound 122, [Glu34,Lys35,Val36,Lys37]-GLP-1-(7-37)-peptidyl-Glu-Phe amide]” yielded an EC50 [1, 4] of 0.016 nM and an EC50 [1, 3] of 0.005 nM.

For “HAEGTFTSDVSSYLEEEAVKEFIAWLVEKVKEFL-NH2 [Compound 135, [Glu22,Glu23,Val25,Glu34,Lys35,Val36,Lys37]-GLP-1-(7-37)-peptidyl-Glu-Phe-Leu amide]”, the EC50 [1, 3] was 0.114 nM.

B1: [Asn14,Met16,Thr17,Asn18,Glu23,Val25,Glu34,Lys35,Aib36,Lys37]-GLP-1-(7-37)-peptidyl-Glu-Phe-Leu amide (peptide)
peptide: HAEGTFTNDMTNYLEGEAVKEFIAWLVEK[Aib]KEFL-NH2
modifications: N-terminus assumed
SMILES: CC[C@H](C)[C@H](NC(=O)[C@H](Cc1ccccc1)NC(=O)[C@H](CCC(=O)O)NC(=O)[C@H](CCCCN)NC(=O)[C@@H](NC(=O)[C@H](C)NC(=O)[C@H](CCC(=O)O)NC(=O)CNC(=O)[C@H](CCC(=O)O)NC(=O)[C@H](CC(C)C)NC(=O)[C@H](Cc1ccc(O)cc1)NC(=O)[C@H](CC(N)=O)NC(=O)[C@@H](NC(=O)[C@H](CCSC)NC(=O)[C@H](CC(=O)O)NC(=O)[C@H](CC(N)=O)NC(=O)[C@@H](NC(=O)[C@H](Cc1ccccc1)NC(=O)[C@@H](NC(=O)CNC(=O)[C@H](CCC(=O)O)NC(=O)[C@H](C)NC(=O)[C@@H](N)Cc1c[nH]cn1)[C@@H](C)O)[C@@H](C)O)[C@@H](C)O)C(C)C)C(=O)N[C@@H](C)C(=O)N[C@@H](Cc1c[nH]c2ccccc12)C(=O)N[C@@H](CC(C)C)C(=O)N[C@H](C(=O)N[C@@H](CCC(=O)O)C(=O)N[C@@H](CCCCN)C(=O)NC(C)(C)C(=O)N[C@@H](CCCCN)C(=O)N[C@@H](CCC(=O)O)C(=O)N[C@@H](Cc1ccccc1)C(=O)N[C@@H](CC(C)C)C(N)=O)C(C)C
For B1, the “CRE luciferase EC50, 0% HSA” value [2] was 0.186 nM and the “CRE luciferase EC50, 1% HSA” value [2] was 0.077 nM.

B2: [Aib8,Glu23,Val25,Arg26,Glu34,Arg35,Aib36,Arg37]-GLP-1-(7-37)-peptidyl-Glu-Phe-Leu amide (peptide)
peptide: H[Aib]EGTFTSDVSSYLEGEAVREFIAWLVER[Aib]REFL-NH2
modifications: N-terminus assumed
SMILES: CC[C@H](C)[C@H](NC(=O)[C@H](Cc1ccccc1)NC(=O)[C@H](CCC(=O)O)NC(=O)[C@H](CCCNC(=N)N)NC(=O)[C@@H](NC(=O)[C@H](C)NC(=O)[C@H](CCC(=O)O)NC(=O)CNC(=O)[C@H](CCC(=O)O)NC(=O)[C@H](CC(C)C)NC(=O)[C@H](Cc1ccc(O)cc1)NC(=O)[C@H](CO)NC(=O)[C@H](CO)NC(=O)[C@@H](NC(=O)[C@H](CC(=O)O)NC(=O)[C@H](CO)NC(=O)[C@@H](NC(=O)[C@H](Cc1ccccc1)NC(=O)[C@@H](NC(=O)CNC(=O)[C@H](CCC(=O)O)NC(=O)C(C)(C)NC(=O)[C@@H](N)Cc1c[nH]cn1)[C@@H](C)O)[C@@H](C)O)C(C)C)C(C)C)C(=O)N[C@@H](C)C(=O)N[C@@H](Cc1c[nH]c2ccccc12)C(=O)N[C@@H](CC(C)C)C(=O)N[C@H](C(=O)N[C@@H](CCC(=O)O)C(=O)N[C@@H](CCCNC(=N)N)C(=O)NC(C)(C)C(=O)N[C@@H](CCCNC(=N)N)C(=O)N[C@@H](CCC(=O)O)C(=O)N[C@@H](Cc1ccccc1)C(=O)N[C@@H](CC(C)C)C(N)=O)C(C)C
B2 was tested, and the “CRE luciferase EC50, 0% HSA” value [2] was 0.086 nM and the “CRE luciferase EC50, 1% HSA” value [2] was 0.041 nM.

B3: [Aib8,Glu34,Lys35,Aib36,Lys37]-GLP-1-(7-37)-peptidyl-Glu-Phe-Leu amide (peptide)
peptide: H[Aib]EGTFTSDVSSYLEGQAAKEFIAWLVEK[Aib]KEFL-NH2
modifications: N-terminus assumed
SMILES: CC[C@H](C)[C@H](NC(=O)[C@H](Cc1ccccc1)NC(=O)[C@H](CCC(=O)O)NC(=O)[C@H](CCCCN)NC(=O)[C@H](C)NC(=O)[C@H](C)NC(=O)[C@H](CCC(N)=O)NC(=O)CNC(=O)[C@H](CCC(=O)O)NC(=O)[C@H](CC(C)C)NC(=O)[C@H](Cc1ccc(O)cc1)NC(=O)[C@H](CO)NC(=O)[C@H](CO)NC(=O)[C@@H](NC(=O)[C@H](CC(=O)O)NC(=O)[C@H](CO)NC(=O)[C@@H](NC(=O)[C@H](Cc1ccccc1)NC(=O)[C@@H](NC(=O)CNC(=O)[C@H](CCC(=O)O)NC(=O)C(C)(C)NC(=O)[C@@H](N)Cc1c[nH]cn1)[C@@H](C)O)[C@@H](C)O)C(C)C)C(=O)N[C@@H](C)C(=O)N[C@@H](Cc1c[nH]c2ccccc12)C(=O)N[C@@H](CC(C)C)C(=O)N[C@H](C(=O)N[C@@H](CCC(=O)O)C(=O)N[C@@H](CCCCN)C(=O)NC(C)(C)C(=O)N[C@@H](CCCCN)C(=O)N[C@@H](CCC(=O)O)C(=O)N[C@@H](Cc1ccccc1)C(=O)N[C@@H](CC(C)C)C(N)=O)C(C)C
In the case of B3, the “CRE luciferase EC50, 0% HSA” value [2] is reported as 0.108 nM and the “CRE luciferase EC50, 1% HSA” value [2] is reported as 0.042 nM.

B4: [Aib8,Glu23,Val25,Glu34,Lys35,Phe36,Lys37]-GLP-1-(7-37)-peptidyl-Glu-Ala-Phe amide (peptide)
peptide: H[Aib]EGTFTSDVSSYLEGEAVKEFIAWLVEKFKEAF-NH2
modifications: N-terminus assumed
SMILES: CC[C@H](C)[C@H](NC(=O)[C@H](Cc1ccccc1)NC(=O)[C@H](CCC(=O)O)NC(=O)[C@H](CCCCN)NC(=O)[C@@H](NC(=O)[C@H](C)NC(=O)[C@H](CCC(=O)O)NC(=O)CNC(=O)[C@H](CCC(=O)O)NC(=O)[C@H](CC(C)C)NC(=O)[C@H](Cc1ccc(O)cc1)NC(=O)[C@H](CO)NC(=O)[C@H](CO)NC(=O)[C@@H](NC(=O)[C@H](CC(=O)O)NC(=O)[C@H](CO)NC(=O)[C@@H](NC(=O)[C@H](Cc1ccccc1)NC(=O)[C@@H](NC(=O)CNC(=O)[C@H](CCC(=O)O)NC(=O)C(C)(C)NC(=O)[C@@H](N)Cc1c[nH]cn1)[C@@H](C)O)[C@@H](C)O)C(C)C)C(C)C)C(=O)N[C@@H](C)C(=O)N[C@@H](Cc1c[nH]c2ccccc12)C(=O)N[C@@H](CC(C)C)C(=O)N[C@H](C(=O)N[C@@H](CCC(=O)O)C(=O)N[C@@H](CCCCN)C(=O)N[C@@H](Cc1ccccc1)C(=O)N[C@@H](CCCCN)C(=O)N[C@@H](CCC(=O)O)C(=O)N[C@@H](C)C(=O)N[C@@H](Cc1ccccc1)C(N)=O)C(C)C
For B4, the “CRE luciferase EC50, 0% HSA” value [2] was 0.372 nM and the “CRE luciferase EC50, 1% HSA” value [2] was 0.115 nM.
